In patent publication US10259796B2, “Oxaspiro[2.5]octane derivatives and analogs” (Zafgen, Inc., priority 2011, dated 2019):
Like-named read-outs stand apart in the source and are kept apart here.

Tests used:
[1] = Mice weight loss, 7 day, 1 mg/kg/day oral gavage, diet-induced obese mice; format: in vivo; settings: Mus musculus, 168 h, read-out: Mice Wt Loss 7 day % WL 1 mpk
From the text: Lean body mass is important to normal function in subjects. Substantial loss of lean body mass is not a desirable consequence of a therapy for an overweight or obese subject. A study is undertaken to analyze weight loss with respect to lean body mass.
Mice are divided into two groups, a diet-induced obese group and a lean group (control). For the diet-induced obese group, C57BL/6NTac mice maintained prior to and during the study on a diet containing 60% fat on a kilocalorie basis are further divided into two groups, fifteen mice per group. Average body weight of these diet-induced obese mice is 40 g at the start of the study. For the lean group, fifteen C57BLI6NTac mice are maintained on a diet containing 4.3% by weight fat prior to and during the study. Average body weight of these lean mice is 33 g at the start of the study. Daily food consumption is also recorded.
Compounds of the invention are administered to one of the diet-induced obese mice groups by oral gavage as a solution in 10% DMSO, at dose of 1 mg/kg/day, 7 days. The other diet-induced obese mice group and the lean mice group are not administered anything.

[2] = target: T1, recombinant human MetAP2 (Homo sapiens, UniProt P50579); test: MetAP2 enzyme assay (inhibition of recombinant MetAP2, Met-Gly-Met-Met substrate); format: biochemical; settings: 50 nM
T1 construct: made in house; host or cells: High Five insect cells (Bac-to-Bac baculovirus)
Protocol: Exemplary procedures for expression and purification of MetAP2 are shown in Griffith et al. (PNAS (1998) 95(26):15183-15188). Briefly, recombinant His-tagged human MetAP2 is expressed by using a Bac-to-Bac baculovirus expression system (GIBCO/BRL). Recombinant baculovirus stocks are generated and amplified as per the manufacturer's instructions. Protein is harvested 36 hr after baculovirus infection of two 15-cm plates of High Five cells.
The cell pellet are weighed and lysed (in 5 ml/g of wet pellet) in pre-chilled lysis buffer [buffer B+1% Nonidet P-40/1 mM phenymethylsulfonyl fluoride (PMSF)/2 μg/ml leupeptin/2 μg/ml aprotinin/1 μg/ml pepstatin]. The lysate is incubated on ice for 10 min and centrifuged at 10,000×g for 10 min. […] The Talon resin is pelleted by centrifugation at 1,200×g for 3 min and washed with 4×10 ml of buffer B. During the final wash, the resin is slurried into a Bio-Rad Econo column. The 6×His-tagged MetAP2 is eluted with 6 ml of 50 mM imidazole in buffer B, and 0.5 ml fractions are collected. The amount and purity of recombinant MetAP2 is analyzed by the absorbance at 280 nm and SDS/PAGE (10% gel). The fractions containing the highest amounts of MetAP2 are pooled and dialyzed against 3 liters of buffer B overnight before storage at 4° C.
An enzyme assay is performed in a 96-well format as described in Griffith et al. (PNAS (1998) 95(26):15183-15188). […] To begin the enzymatic reaction, Met-Gly-Met-Met is added to a final concentration of 4 mM and incubated at 37° C. The reaction is quenched after 20 min by adding EDTA to a concentration of 10 mM. Released methionine is quantitated as described in Ben-Bassat et al. (J Bacteriol (1987) 169:751-757).
IC50 values are calculated and compounds herein are determined to be active inhibitors of MetAP2, with some having nanomolar activities.

[3] = Cell Based Assay (inhibition range)
[4] = 4 hr, read-out: MetAP2 Enzyme Assay 4 hr 50 nM
[5] = diet-induced obese C57BL/6NTac mice, oral gavage, 1 mg/kg/day, 7 days
[6] = 1 hr, read-out: MetAP2 Enzyme Assay 1 hr 50 nM
[7] = 2 hr, read-out: MetAP2 Enzyme Assay 2 hr 50 nM

T1 sequence (P50579 whole entry): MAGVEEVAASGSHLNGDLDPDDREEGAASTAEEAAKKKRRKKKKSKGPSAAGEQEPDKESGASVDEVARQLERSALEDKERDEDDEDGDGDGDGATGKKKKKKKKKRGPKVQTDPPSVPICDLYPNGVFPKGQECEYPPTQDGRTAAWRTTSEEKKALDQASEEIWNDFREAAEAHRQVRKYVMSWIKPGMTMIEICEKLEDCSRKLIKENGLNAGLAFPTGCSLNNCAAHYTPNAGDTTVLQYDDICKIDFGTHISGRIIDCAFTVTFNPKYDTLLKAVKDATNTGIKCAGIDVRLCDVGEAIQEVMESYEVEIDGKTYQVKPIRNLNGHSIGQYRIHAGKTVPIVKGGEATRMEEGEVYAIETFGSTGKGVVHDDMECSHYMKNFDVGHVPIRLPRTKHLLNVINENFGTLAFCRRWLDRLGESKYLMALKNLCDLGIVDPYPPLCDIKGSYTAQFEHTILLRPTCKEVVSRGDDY

CO[C@@H]1[C@H](OC(=O)CCCCCCCCC(=O)O[C@@H]2CC[C@]3(CO3)[C@@H]([C@@]3(C)O[C@@H]3CC=C(C)C)[C@@H]2OC)CC[C@]2(CO2)[C@H]1[C@@]1(C)O[C@@H]1CC=C(C)C [Example 27]
change in vivo at 1 mg/kg ([1]; po): 4.4%
inhibition at 0.05 µM [2, 4]: 48%
IC50 ([3]; cells printed in nM): 10 to 100 nM

CO[C@@H]1[C@H](OC(=O)N[C@@H](C(=O)NCCC2CCCN2C)C(C)C)CC[C@]2(CO2)[C@H]1[C@@]1(C)O[C@@H]1CC=C(C)C (some centres unmarked) [Example 33]
change in vivo at 1 mg/kg [1, 5]: 2.1%
inhibition at 0.05 µM [2, 4]: 43%
IC50 ([3]; cells printed in nM): < 10 nM

CO[C@@H]1[C@H](OC(=O)N[C@@H](C(=O)NCCCN(C)C)C(C)C)CC[C@]2(CO2)[C@H]1[C@@]1(C)O[C@@H]1CC=C(C)C [Example 32]
change in vivo at 1 mg/kg [1, 5]: 0.3%
inhibition at 0.05 µM [2, 4]: 54%
IC50 ([3]; cells printed in nM): < 10 nM

CCCCCCCCCC=C1CC[C@]2(CO2)[C@@H]([C@@]2(C)O[C@@H]2CC=C(C)C)[C@@H]1OC [Example 20]
change in vivo at 1 mg/kg ([1]; po): 0.4%
inhibition at 0.05 µM [2, 6]: 0%
inhibition at 0.05 µM [2, 7]: 0%
inhibition at 0.05 µM [2, 4]: 0%
IC50 ([3]; in uM): > 1000 nM

CCCCCCCCCCS[C@@H]1CC[C@]2(CO2)[C@@H]([C@@]2(C)O[C@@H]2CC=C(C)C)[C@@H]1OC [Example 18]
change in vivo at 1 mg/kg [1, 5]: 0%
inhibition at 0.05 µM [2, 6]: 0%
inhibition at 0.05 µM [2, 7]: 0%
inhibition at 0.05 µM [2, 4]: 0%
IC50 ([3]; in uM): > 1000 nM

COC(=O)CCCCCCCCCO[C@H]1CC[C@]2(CO2)[C@@H]([C@@]2(C)O[C@@H]2CC=C(C)C)[C@@H]1OC [Example 6]
change in vivo at 1 mg/kg [1, 5]: 1.7%
inhibition at 0.05 µM [2, 6]: 0%
inhibition at 0.05 µM [2, 7]: 0%
inhibition at 0.05 µM [2, 4]: 0%
IC50 ([3]; in uM): > 1000 nM

CO[C@@H]1[C@H](NCCCCCCCCCC(=O)O)CC[C@]2(CO2)[C@H]1[C@@]1(C)O[C@@H]1CC=C(C)C [Example 7]
change in vivo at 1 mg/kg ([1]; po): 0.5%
inhibition at 0.05 µM [2, 6]: 0%
inhibition at 0.05 µM [2, 7]: 0%
inhibition at 0.05 µM [2, 4]: 0%
IC50 ([3]; in uM): > 1000 nM

COC(=O)CCCCCCCCCO[C@@H]1CC[C@]2(CO2)[C@@H]([C@@]2(C)O[C@@H]2CC=C(C)C)[C@@H]1OC [Example 19]
change in vivo at 1 mg/kg [1, 5]: -0.9%
inhibition at 0.05 µM [2, 6]: 0%
inhibition at 0.05 µM [2, 7]: 0%
inhibition at 0.05 µM [2, 4]: 0%
IC50 ([3]; in uM): > 1000 nM

CO[C@@H]1[C@@H](F)CC[C@]2(CO2)[C@H]1[C@@]1(C)O[C@@H]1CC=C(C)C [Example 23]
change in vivo at 1 mg/kg [1, 5]: -0.33%
inhibition at 0.05 µM [2, 6]: 23%
inhibition at 0.05 µM [2, 7]: 28%
inhibition at 0.05 µM [2, 4]: 27%
IC50 ([3]; cells printed in nM): 10 to 100 nM

CO[C@@H]1[C@H](OC(=O)NC2CN3CCC2CC3)CC[C@]2(CO2)[C@H]1[C@@]1(C)O[C@@H]1CC=C(C)C (some centres unmarked) [Example 30]
change in vivo at 1 mg/kg [1, 5]: -0.9%
inhibition at 0.05 µM [2, 4]: 30%
IC50 ([3]; cells printed in nM): < 10 nM

CCCCCCCC/C=C\CCCCCCCC(=O)O[C@@H]1CC[C@]2(CO2)[C@@H]([C@@]2(C)O[C@@H]2CC=C(C)C)[C@@H]1OC [Example 16]
change in vivo at 1 mg/kg ([1]; po): 5.4%
inhibition at 0.05 µM [2, 6]: 0%
inhibition at 0.05 µM [2, 7]: 0%
inhibition at 0.05 µM [2, 4]: 0%
IC50 ([3]; in uM): > 1000 nM

C=C1CC[C@]2(CO2)[C@@H]([C@@]2(C)O[C@@H]2CC=C(C)C)[C@@H]1OC [Example 15]
change in vivo at 1 mg/kg ([1]; po): 7.9%
inhibition at 0.05 µM [2, 6]: 26%
inhibition at 0.05 µM [2, 7]: 32%
inhibition at 0.05 µM [2, 4]: 40%
IC50 ([3]; in uM): 100 to 1000 nM

CO[C@@H]1[C@H](OC(=O)CCCCCCCCC(=O)O)CC[C@]2(CO2)[C@H]1[C@@]1(C)O[C@@H]1CC=C(C)C [Example 5]
change in vivo at 1 mg/kg ([1]; po): 9.5%
inhibition at 0.05 µM [2, 6]: 15%
inhibition at 0.05 µM [2, 7]: 30%
inhibition at 0.05 µM [2, 4]: 50%
IC50 ([3]; cells printed in nM): < 10 nM

CCCCCCCCCCC(=O)O[C@@H]1CC[C@]2(CO2)[C@@H]([C@@]2(C)O[C@@H]2CC=C(C)C)[C@@H]1OC [Example 12]
change in vivo at 1 mg/kg [1, 5]: 8.4%
inhibition at 0.05 µM [2, 6]: 0%
inhibition at 0.05 µM [2, 7]: 5%
inhibition at 0.05 µM [2, 4]: 29%
IC50 ([3]; in uM): 100 to 1000 nM
